Results reported in patent US10385019B2, “Inhibitors of EGFR and methods of use thereof” (Dana-Farber Cancer Institute, Inc., priority 2015, dated 2019).
Like-named read-outs stand apart in the source and are kept apart here.

Biological target: EGFR T790M/L858R Ba/F3 cell line (Homo sapiens, UniProt P00533, T790M/L858R, cells depend on it)
Assay: Ba/F3 cell proliferation model
Assay type: cell-based, murine
Conditions: for Activity (% inhibition): combined with cetuximab (% cetuximab, 1.0 μM drug concentration with 1.0 μg/mL cetuximab)
Source text: The selectivity between wild-type EGFR and EGFR containing one or more mutations as described herein can also be measured using cellular proliferation assays where cell proliferation is dependent on kinase activity. For example, murine Ba/F3 cells transfected with a suitable version of wild-type EGFR (such as VIII; containing a WT EGFR kinase domain), or Ba/F3 cells transfected with L858R/T790M, Del/T790M/L718Q, L858R/T790M/L718Q, L858R/T790M/C797S, Del/T790M/C797S, L858R/T790M/I941R, or Exon 19 deletion/T790M can be used.
Cell lines are plated in media. The compounds of the present disclosure are then serially diluted and transferred to the cells. Cell viability is measured via a luminescent readout. Data is analyzed by non-linear regression curve-fitting. […]
The EGFR mutant L858R, Del E746_A750, L858R/T790M, DelE746_A750/T790M, L858R/T790M/C797S and Del/T790M/C797S Ba/F3 cells have been previously described (Zhou, W., Ercan, D., Chen, L., Yun, C. H., Li, D., Capelletti, M., Cortot, A. B., Chirieac, L., Iacob, R. E., Padera, R., et al. “Novel mutant-selective EGFR kinase inhibitors against EGFR T790M,” Nature 462, (2009), 1070-1074). All cell lines were maintained in RPMI 1640 (Cellgro; Mediatech Inc., Herndon, Calif.) supplemented with 10% FBS 100 units/mL penicillin, 100 units/mL streptomycin, and 2 mM glutamine. L858R cells were maintained in ACL-4 media (Invitrogen, Carlsbad, Calif.) supplemented with 5% FBS, 100 units/mL penicillin, 100 units/mL streptomycin, and 2 mM glutamine. The EGFR I941R mutation was introduced via site directed mutagenesis using the Quick Change Site-Directed Mutagenesis kit (Stratagene; La Jolla, Calif.) according to the manufacturer's instructions. All constructs were confirmed by DNA sequencing. The constructs were shuttled into the retroviral vector JP 1540 using the BD Creator™ System (BD Biosciences). Ba/F3 cells were infected with retrovirus and according to standard protocols, as described previously (Zhou et al, Nature 2009). Stable clones were obtained by selection in puromycin (2 μg/ml).
Growth and inhibition of growth was assessed by MTS assay and was performed according to previously established methods (Zhou et al., Nature 2009). The MTS assay is a colorimetric method for determining the number of viable cells that is based on the bioreduction of MTS by cells to a formazan product that is soluble in cell culture medium and can be detected spectrophotometrically. Ba/F3 cells of different EGFR genotypes were exposed to treatment for 72 hours and the number of cells used per experiment determined empirically and has been previously established (Zhou et al., Nature 2009). All experimental points were set up in six wells and all experiments were repeated at least three times. […] The curves were fitted using a non-linear regression model with a sigmoidal dose response.
Inhibition data of an EGFR T790M/L858R Ba/F3 cell line.

EGFR T790M/L858R Ba/F3 cell line, sequence (P00533 whole entry T790M/L858R): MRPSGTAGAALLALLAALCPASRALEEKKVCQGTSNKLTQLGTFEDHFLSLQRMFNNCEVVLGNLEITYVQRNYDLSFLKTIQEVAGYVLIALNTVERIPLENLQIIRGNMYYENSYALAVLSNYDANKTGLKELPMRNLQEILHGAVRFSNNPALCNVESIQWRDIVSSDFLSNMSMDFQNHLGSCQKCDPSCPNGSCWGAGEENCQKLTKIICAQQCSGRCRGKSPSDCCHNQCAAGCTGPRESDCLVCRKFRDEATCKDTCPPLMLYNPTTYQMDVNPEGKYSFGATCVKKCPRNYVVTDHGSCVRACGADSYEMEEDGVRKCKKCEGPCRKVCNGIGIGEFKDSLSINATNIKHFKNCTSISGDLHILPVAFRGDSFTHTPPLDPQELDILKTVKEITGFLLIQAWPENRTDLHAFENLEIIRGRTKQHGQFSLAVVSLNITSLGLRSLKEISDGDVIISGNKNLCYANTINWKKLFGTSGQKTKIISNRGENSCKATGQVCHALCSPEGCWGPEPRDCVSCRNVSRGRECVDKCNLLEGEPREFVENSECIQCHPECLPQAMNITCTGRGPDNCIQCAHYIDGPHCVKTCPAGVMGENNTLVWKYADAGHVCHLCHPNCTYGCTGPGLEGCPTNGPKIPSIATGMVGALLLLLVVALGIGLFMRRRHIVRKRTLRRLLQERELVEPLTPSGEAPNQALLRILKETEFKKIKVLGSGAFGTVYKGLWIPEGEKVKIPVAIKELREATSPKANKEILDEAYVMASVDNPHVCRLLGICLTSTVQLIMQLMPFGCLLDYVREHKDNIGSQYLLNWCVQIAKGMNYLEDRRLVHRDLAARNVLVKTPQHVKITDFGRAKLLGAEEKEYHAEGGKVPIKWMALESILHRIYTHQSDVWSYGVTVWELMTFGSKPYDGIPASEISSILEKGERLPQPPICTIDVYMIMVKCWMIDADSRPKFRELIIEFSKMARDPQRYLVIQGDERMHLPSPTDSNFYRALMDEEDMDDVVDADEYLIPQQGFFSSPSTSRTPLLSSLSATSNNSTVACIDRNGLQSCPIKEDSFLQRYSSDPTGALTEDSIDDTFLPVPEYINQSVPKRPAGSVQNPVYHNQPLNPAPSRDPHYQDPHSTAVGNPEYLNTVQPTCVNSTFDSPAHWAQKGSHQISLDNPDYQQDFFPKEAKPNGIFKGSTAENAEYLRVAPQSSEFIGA

SMILES | Activity (% inhibition) | GI50 (compound alone, read-out: L858R/T790M IC50) [nM] | GI50 (read-out: L858R/T790M Cetuximab IC50, in combination with Cetuximab) [nM]
O=C(Nc1nccs1)[C@@H](c1ccccc1)N1Cc2ccc(C3=CCCCC3)cc2C1=O [Compound I-86, (R)-2-(6-(cyclohex-1-en-1-yl)-1-oxoisoindolin-2-yl)-2-phenyl-N-(thiazol-2-yl)acetamide] | B (a % inhibition of between about 50% to about 75%) | – | –
O=C(Nc1nccs1)[C@@H](c1cc(F)ccc1O)N1Cc2ccc(-c3ccc(N4CCNCC4)cc3)cc2C1=O [Compound I-126, (R)-2-(5-fluoro-2-hydroxyphenyl)-2-(1-oxo-6-(4-(piperazin-1-yl)phenyl)isoindolin-2-yl)-N-(thiazol-2-yl)acetamide] | D (a % inhibition of between about 0% to about 25%) | 500 to 1000 | < 500
O=C(Nc1nccs1)[C@@H](c1ccccc1)N1Cc2ccc(-c3ccccc3)cc2C1=O [Compound I-59, (R)-2-(1-oxo-6-phenylisoindolin-2-yl)-2-phenyl-N-(thiazol-2-yl)acetamide] | C (a % inhibition of between about 25% to about 50%) | – | –
O=C(Nc1ncco1)[C@@H](c1ccccc1)N1Cc2ccc(-c3ccc4[nH]ccc4c3)cc2C1=O [Compound I-129, (R)-2-(6-(1H-indol-5-yl)-1-oxoisoindolin-2-yl)-N-(oxazol-2-yl)-2-phenylacetamide] | B (a % inhibition of between about 50% to about 75%) | – | –
C[C@H](C(=O)Nc1nccs1)N1Cc2ccc(-c3ccc(N4CCNCC4)cc3)cc2C1=O [Compound I-118, (R)-2-(1-oxo-6-(4-(piperazin-1-yl)phenyl)isoindolin-2-yl)-N-(thiazol-2-yl)propanamide] | A (a % inhibition of about 75%) | – | –
O=C(Nc1ncc[nH]1)[C@H](c1ccccc1)N1Cc2ccccc2C1=O [Compound I-35, (S)-N-(1H-imidazol-2-yl)-2-(1-oxoisoindolin-2-yl)-2-phenylacetamide] | A (a % inhibition of about 75%) | – | –
O=C(Nc1cc(C(F)(F)F)n[nH]1)[C@@H](c1ccccc1)N1Cc2ccccc2C1=O [Compound I-30, (R)-2-(1-oxoisoindolin-2-yl)-2-phenyl-N-(3-(trifluoromethyl)-1H-pyrazol-5-yl)acetamide] | A (a % inhibition of about 75%) | – | –
O=C(Nc1nc(CCCN2CCOCC2)cs1)[C@@H](c1ccccc1)N1Cc2ccccc2C1=O [Compound I-43, (R)-N-(4-(3-morpholinopropyl)thiazol-2-yl)-2-(1-oxoisoindolin-2-yl)-2-phenylacetamide] | A (a % inhibition of about 75%) | – | –
O=C(NCCCN1CCOCC1)c1ccc(-c2ccc3c(c2)C(=O)N([C@@H](C(=O)Nc2nccs2)c2ccccc2)C3)cc1 [Compound I-84, (R)-N-(3-morpholinopropyl)-4-(3-oxo-2-(2-oxo-1-phenyl-2-(thiazol-2-ylamino)ethyl)isoindolin-5-yl)benzamide] | D (a % inhibition of between about 0% to about 25%) | – | –
C[C@@H](NC(=O)[C@H](c1ccccc1)N1Cc2ccccc2C1=O)c1ccccc1 [Compound I-1, (S)-2-(1-oxoisoindolin-2-yl)-2-phenyl-N-((R)-1-phenylethyl)acetamide] | A (a % inhibition of about 75%) | – | –
O=C(Nc1nncs1)[C@@H](c1ccccc1)N1Cc2ccc(-c3ccc4[nH]ccc4c3)cc2C1=O [Compound I-127, (R)-2-(6-(1H-indol-5-yl)-1-oxoisoindolin-2-yl)-2-phenyl-N-(1,3,4-thiadiazol-2-yl)acetamide] | A (a % inhibition of about 75%) | – | –
O=C(Nc1nccs1)[C@@H](c1cccc([N+](=O)[O-])c1)N1Cc2ccc(-c3ccc4[nH]ccc4c3)cc2C1=O [Compound I-109, (R)-2-(6-(1H-indol-5-yl)-1-oxoisoindolin-2-yl)-2-(3-nitrophenyl)-N-(thiazol-2-yl)acetamide] | B (a % inhibition of between about 50% to about 75%) | – | –
O=C(Nc1nc(C(=O)N2CCOCC2)cs1)[C@@H](c1ccccc1)N1Cc2ccccc2C1=O [Compound I-22, (R)-N-(4-(morpholine-4-carbonyl)thiazol-2-yl)-2-(1-oxoisoindolin-2-yl)-2-phenylacetamide] | A (a % inhibition of about 75%) | – | –
O=C(Nc1nccs1)C(c1cccc(F)c1)N1Cc2ccc(-c3ccc(CN4CCNCC4)cc3)cc2C1=O (stereo not drawn) [Compound I-125, 2-(3-fluorophenyl)-2-(1-oxo-6-(4-(piperazin-1-ylmethyl)phenyl)isoindolin-2-yl)-N-(thiazol-2-yl)acetamide] | D (a % inhibition of between about 0% to about 25%) | – | –
O=C(Nc1nccs1)[C@@H](c1ccccc1)N1Cc2ccc(-c3cn[nH]c3)cc2C1=O [Compound I-64, (R)-2-(1-oxo-6-(1H-pyrazol-4-yl)isoindolin-2-yl)-2-phenyl-N-(thiazol-2-yl)acetamide] | B (a % inhibition of between about 50% to about 75%) | – | –
O=C(Nc1nccs1)[C@@H](c1ccccc1)N1Cc2ccc(-c3ccc4cc[nH]c4c3)cc2C1=O [Compound I-67, (R)-2-(6-(1H-indol-6-yl)-1-oxoisoindolin-2-yl)-2-phenyl-N-(thiazol-2-yl)acetamide] | C (a % inhibition of between about 25% to about 50%) | – | –
O=C(Nc1nccs1)[C@@H](c1ccccc1)N1Cc2ccc(Nc3cccc(CN4CCCC4)c3)cc2C1=O [Compound I-100, (R)-2-(1-oxo-6-((3-(pyrrolidin-1-ylmethyl)phenyl)amino)isoindolin-2-yl)-2-phenyl-N-(thiazol-2-yl)acetamide] | D (a % inhibition of between about 0% to about 25%) | – | –
O=C(Nc1ccccc1Cl)[C@@H](c1ccccc1)N1Cc2ccccc2C1=O [Compound I-52, (R)-N-(2-chlorophenyl)-2-(1-oxoisoindolin-2-yl)-2-phenylacetamide] | A (a % inhibition of about 75%) | – | –
O=C(Nc1nccs1)[C@H](c1ccccc1)N1Cc2ccccc2C1=O [Compound I-21, (S)-2-(1-oxoisoindolin-2-yl)-2-phenyl-N-(thiazol-2-yl) acetamide] | B (a % inhibition of between about 50% to about 75%) | – | –
O=C(NCC(O)CO)c1cc(N[C@@H](C(=O)Nc2nccs2)c2ccccc2)ccc1[N+](=O)[O-] (stereo partly drawn) [Compound I-110, N-(2,3-dihydroxypropyl)-2-nitro-5-(((R)-2-oxo-1-phenyl-2-(thiazol-2-ylamino)ethyl)amino)benzamide] | A (a % inhibition of about 75%) | – | –
COc1ccc(-c2ccc3c(c2)C(=O)N([C@@H](C(=O)Nc2nccs2)c2ccccc2)C3)c(OC)c1 [Compound I-80, (R)-2-(6-(2,4-dimethoxyphenyl)-1-oxoisoindolin-2-yl)-2-phenyl-N-(thiazol-2-yl)acetamide] | C (a % inhibition of between about 25% to about 50%) | – | –
O=C(Nc1nccs1)[C@@H](c1ccccc1)N1Cc2ccc(-c3ccncc3)cc2C1=O [Compound I-61, (R)-2-(1-oxo-6-(pyridin-4-yl)isoindolin-2-yl)-2-phenyl-N-(thiazol-2-yl)acetamide] | C (a % inhibition of between about 25% to about 50%) | – | –
O=C(Nc1nccs1)[C@@H](c1cccc([N+](=O)[O-])c1)N1Cc2ccccc2C1=O [Compound I-18, (R)-2-(3-nitrophenyl)-2-(1-oxoisoindolin-2-yl)-N-(thiazol-2-yl)acetamide] | A (a % inhibition of about 75%) | – | –
O=C(Nc1nc(C(F)(F)F)cs1)[C@@H](c1ccccc1)N1Cc2ccccc2C1=O [Compound I-6, (R)-2-(1-oxoisoindolin-2-yl)-2-phenyl-N-(4-(trifluoromethyl)thiazol-2-yl)acetamide] | A (a % inhibition of about 75%) | – | –
O=C(Nc1nccs1)[C@H](c1cccc([N+](=O)[O-])c1)N1Cc2ccccc2C1=O [Compound I-12, (S)-2-(3-nitrophenyl)-2-(1-oxoisoindolin-2-yl)-N-(thiazol-2-yl)acetamide] | A (a % inhibition of about 75%) | – | –
